Measured values reported in the supplement of paper PMC10307832.

Experiments:
Assay in all cases: relative viability (nuclei count vs DMSO), 5 days (fraction); higher = more cells survive
[1] = tested on: SK-MES-1
In short: (§1)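 Lung cancer cell lines in 1536-well plates were dosed by pin tool the day after seeding, either with one drug alone or with a fixed anchor-drug dose plus five library-drug doses (not always all listed) in √10 steps. After 5 days, cells were fixed and their nuclei stained in one step (final 0.05% Triton X-100, 1% formaldehyde, 1 ug/ml Hoechst), then counted on 4× images. Relative viability is the nuclei count in treated wells divided by that in vehicle wells. Values are medians of duplicate plates.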

[2] = tested on: NCI-H647
In short: as §1

[3] = tested on: NCI-H1755
In short: as §1

[4] = tested on: NCI-H1734
In short: as §1

[5] = tested on: NCI-H838
In short: as §1

[6] = tested on: COR-L23
In short: as §1

[7] = tested on: NCI-H2342
In short: as §1

[8] = tested on: NCI-H358
In short: as §1

[9] = tested on: NCI-H322M
In short: as §1

[10] = tested on: COR-L 105
In short: as §1

[11] = tested on: HARA
In short: as §1

[12] = tested on: NCI-H1355
In short: as §1

Structure (SMILES): COc1cc(N2CCC(C(N)=O)CC2)ccc1Nc1nc(N)c(Cl)c(Nc2ccccc2S(=O)(=O)C(C)C)n1 [HG-5-88-01] + O=C(c1cc(Cc2n[nH]c(=O)c3ccccc23)ccc1F)N1CCN(C(=O)C2CC2)CC1 [Olaparib] (partner 8 µM)
- relative viability ([1]; first compound 0.04 µM): 0.657
- relative viability ([1]; first compound 0.1265 µM): 0.658
- relative viability ([1]; first compound 0.4 µM): 0.689
- relative viability ([1]; first compound 1.265 µM): 0.508
- relative viability ([1]; first compound 4 µM): 0.564
- relative viability ([2]; first compound 0.04 µM): 0.552
- relative viability ([2]; first compound 0.1265 µM): 0.553
- relative viability ([2]; first compound 1.265 µM): 0.667
- relative viability ([2]; first compound 4 µM): 0.738
- relative viability ([3]; first compound 0.04 µM): 0.811
- relative viability ([3]; first compound 0.1265 µM): 0.869
- relative viability ([3]; first compound 0.4 µM): 0.874
- relative viability ([3]; first compound 1.265 µM): 0.849
- relative viability ([3]; first compound 4 µM): 0.928
- relative viability ([4]; first compound 0.04 µM): 0.681
- relative viability ([4]; first compound 0.1265 µM): 0.583
- relative viability ([4]; first compound 0.4 µM): 0.642
- relative viability ([4]; first compound 1.265 µM): 0.54
- relative viability ([4]; first compound 4 µM): 0.558
- relative viability ([5]; first compound 0.04 µM): 0.793
- relative viability ([5]; first compound 0.1265 µM): 0.766
- relative viability ([5]; first compound 0.4 µM): 0.67
- relative viability ([5]; first compound 1.265 µM): 0.557
- relative viability ([5]; first compound 4 µM): 0.452
- relative viability ([6]; first compound 0.04 µM): 0.336
- relative viability ([6]; first compound 0.1265 µM): 0.386
- relative viability ([6]; first compound 0.4 µM): 0.28
- relative viability ([6]; first compound 1.265 µM): 0.319
- relative viability ([6]; first compound 4 µM): 0.246
- relative viability ([7]; first compound 0.04 µM): 0.449
- relative viability ([7]; first compound 0.1265 µM): 0.538
- relative viability ([7]; first compound 0.4 µM): 0.473
- relative viability ([7]; first compound 4 µM): 0.474
- relative viability ([8]; first compound 0.04 µM): 0.569
- relative viability ([8]; first compound 0.1265 µM): 0.568
- relative viability ([8]; first compound 0.4 µM): 0.545
- relative viability ([8]; first compound 1.265 µM): 0.242
- relative viability ([8]; first compound 4 µM): 0.466
- relative viability ([9]; first compound 0.04 µM): 0.809
- relative viability ([9]; first compound 0.1265 µM): 0.699
- relative viability ([9]; first compound 0.4 µM): 0.913
- relative viability ([9]; first compound 1.265 µM): 0.485
- relative viability ([9]; first compound 4 µM): 0.686
- relative viability ([10]; first compound 0.04 µM): 0.752
- relative viability ([10]; first compound 0.1265 µM): 0.765
- relative viability ([10]; first compound 0.4 µM): 0.708
- relative viability ([10]; first compound 1.265 µM): 0.692
- relative viability ([10]; first compound 4 µM): 0.683
- relative viability ([11]; first compound 0.04 µM): 1.07
- relative viability ([11]; first compound 0.1265 µM): 1.02
- relative viability ([11]; first compound 0.4 µM): 0.456
- relative viability ([11]; first compound 1.265 µM): 0.526
- relative viability ([11]; first compound 4 µM): 0.862
- relative viability ([12]; first compound 0.04 µM): 0.833
- relative viability ([12]; first compound 0.1265 µM): 0.768
- relative viability ([12]; first compound 0.4 µM): 0.74
- relative viability ([12]; first compound 1.265 µM): 0.706
- relative viability ([12]; first compound 4 µM): 0.584
